# Measured values: publication PMC3313490 (Current Cancer Drug Targets, 2011)
# Like-named read-outs stand apart in the source and are kept apart here.
# Key:
# [1] = system: human neuroblastoma SH-SY5Y cells; type: cell-based; conditions: for EC50: read-out: EC50 cell viability
# [2] = system: human neuroblastoma SH-SY5Y cells; assay: Cell degeneration by microscopy images of treated cells; type: cell-based; conditions: 24 h exposure, up to 200 μM
# porcine liver PMPMEase [3] = target: T1, porcine liver PMPMEase (Sus scrofa, UniProt Q29550); conditions: for IC50: PMPMEase 1 μg, 15 min pre-incubation at 37°C, RD-PNB substrate
# T1 sequence (Q29550 19-566): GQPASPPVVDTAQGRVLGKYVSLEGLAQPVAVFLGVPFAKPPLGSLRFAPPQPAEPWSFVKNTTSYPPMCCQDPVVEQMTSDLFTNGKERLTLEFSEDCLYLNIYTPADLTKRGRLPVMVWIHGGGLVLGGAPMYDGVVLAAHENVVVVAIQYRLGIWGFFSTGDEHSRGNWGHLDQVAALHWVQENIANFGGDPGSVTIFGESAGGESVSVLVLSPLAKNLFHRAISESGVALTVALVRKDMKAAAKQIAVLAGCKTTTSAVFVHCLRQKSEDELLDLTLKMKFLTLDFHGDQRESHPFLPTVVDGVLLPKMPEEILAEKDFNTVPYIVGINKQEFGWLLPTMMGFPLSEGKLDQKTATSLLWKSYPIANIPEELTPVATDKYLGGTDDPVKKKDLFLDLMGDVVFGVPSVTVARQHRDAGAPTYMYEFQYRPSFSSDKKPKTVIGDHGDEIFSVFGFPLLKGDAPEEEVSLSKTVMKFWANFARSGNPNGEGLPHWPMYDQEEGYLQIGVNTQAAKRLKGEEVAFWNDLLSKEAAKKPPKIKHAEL
# porcine liver PMPMEase [4] = target: T1, porcine liver PMPMEase; conditions: for Kobs/[I]: PMPMEase 82.5 μg, pre-incubation 0-30 min, 100-fold dilution, RD-PNB substrate
Compound,Cell degeneration observed [2],IC50 fold lower relative to PMSF (porcine liver PMPMEase [3]) [fold],Kobs/[I] (porcine liver PMPMEase [4]) [M⁻¹ s⁻¹],Kobs/[I] fold higher relative to PMSF (porcine liver PMPMEase [4]),IC50 (porcine liver PMPMEase [3]) [µM],further results
2-trans-Geranylthioethanesulfonyl fluoride [Compound L-23],extensive degeneration,56,4100,over 680 fold,–,EC50 [1]: 144 µM
"CC(C)=CCC/C(C)=C/CC/C(C)=C/CSCCS(=O)(=O)F [Compound L-28, 2-trans, trans-Farnesylthioethanesulfonyl fluoride]",extensive degeneration,37,2000,> 330 fold,0.048,"EC50 ([1]; 24 h exposure, serum-free DMEM/F12): 66.5 µM; EC50 ([1]; 48 h exposure, serum-free DMEM/F12): 24.3 µM; EC50 ([1]; 72 h exposure, serum-free DMEM/F12): 13.6 µM"
"O=S(=O)(F)CCSc1ccccc1 [Compound L-50, Phenylthioethanesulfonyl fluoride]",–,–,180,–,0.066,–
"O=S(=O)(F)CCSCc1ccccc1 [Compound L-51, Benzylthioethanesulfonyl fluoride]",–,–,350,–,0.047,Kobs/[I] fold lower than that for L-28 (porcine liver PMPMEase [4]; relative to L-28): over 5 fold
"CCCCCCCCCCSCCS(=O)(=O)F [Compound L-52, Decanylthioethanesulfonyl fluoride]",–,–,1800,–,0.13,–
"O=S(=O)(F)Cc1ccccc1 [PMSF, phenylmethylsulfonyl fluoride, reference compound]",did not show degeneration even at 200 μM,–,–,–,–,Effect on viability of cultured cells ([1]; 24 h exposure): no significant effect
